From patent US11510949B2, “Use of the treatment or improvement of sleep disorders by Lactobacillus brevis ProGA28 and/or its metabolites” (SYNGEN BIOTECH CO., LTD, priority 2019, dated 2022)

System: SHR rats
Assay: Sleep quality and quantity assessment in SHR rats after tube feeding (EEG/EMG sleep staging)
Assay type: in vivo
[1] = pure substance administered, FIG. 5

Description: The dosage of the test products used in the following examples is based on the daily human consumption of 8.3 mg/kg, and then according to the body surface area model coefficient of 6.2 to calculate the standard feeding dosage for rats being 52 mg/kg which is set as 1.0× dose given in the following examples.
The “sleep stage” called in the following examples includes the following three stages: awake (AW); quiet sleep (QS) which is equivalent to human non-rapid eye movement sleep (NREM) and paradoxical sleep (PS) which is equivalent to human rapid eye movement sleep (REM).
Frequency domain analysis of brain waves and myoelectric waves: each 16 seconds (1024 points) of brain wave signal acquisition is called a time window (or epoch), and is compared with 8 seconds before the next time window (50%) overlap for analysis. The fast Fourier transform is used to estimate the power spectral density and evaluate the activity of brain waves in different frequency bands. […]
Each test product was dissolved in drinking water and administered by tube feeding, the administration time was 1 hour before the light, and the physiological information of each group of rats was recorded at the beginning of the light, as a basis for sleep assessment.
In addition, pure gamma-aminobutyric acid was also administered to the SHR rats, and as described above, the physiological information of SHR rats was detected and recorded as a basis for sleep assessment.
The quality and quantity of sleep in the 24 hours after each test product was fed which was used as the range of sleep assessment:
The quantity of sleep: including the total time of sleep and wakefulness, the number of falling asleep and the average time of each sleep stage (duration) etc., and evaluate the quantity of sleep for each sleep stage; and the sleep of the group fed water is defined as 100%, used for comparing with the other groups fed test products to show the difference in each sleep stage.

In the case of `NCCCC(=O)O` [pure y-aminobutyric acid, γ-aminobutyric acid], the “quality and quantity of sleep” value (overall comparison of the figures, dose not specified) was “not helpful for the improvement”, the “sleep quality of rats” value [1] was “not helpful to increase the sleep quality” and the sleep time [1] was “can not increase sleep time”.
